Assay [1] in a line: Relative binding affinity for kappa and mu opioid receptors.
A short description of assay [2]: Inhibition of [3H]-DPDPE (cyclo[D-Pen2,D-Pen5]enkep halin) binding to delta opioid receptor expressed in CHO cells. The assay is classed as cell-based.
Assay [3] in a line: Inhibition of [3H]DAMGO ([D-Ala2,NMePhe4,glyol]-enkephalin) binding to mu opioid receptor expressed in CHO cells. Type of assay: cell-based.
A short description of assay [4]: Relative binding affinity for kappa and delta opioid receptors.
A short description of assay [5]: Inhibition of [3H]diprenorphine binding to kappa opioid receptor expressed in CHO cells. Type of assay: cell-based.

SMILES strings stand for the structures.

For the compound `CC(=O)NC[C@H](NC(=O)[C@H](CCCNC(=N)N)NC(=O)[C@H](CCCNC(=N)N)NC(=O)[C@@H](CC(N)=O)NC(=O)[C@H](Cc1ccccc1)NC(=O)CNC(=O)CNC(=O)[C@H](Cc1ccc(O)cc1)NCc1ccccc1)C(=O)N[C@@H](CCCNC(=N)N)C(=O)N1CCC[C@H]1C(=O)N[C@@H](CCCCN)C(N)=O`, the figures for the Ratio in assay [1] and in assay [4] were 0.04 and 0.007, respectively. In addition, the figures for the inhibition constant Ki in assay [2], in assay [3] and in assay [5] were > 10000 nM, 1660 nM and 66.9 nM, respectively.

For the compound `NCCCC[C@H](NC(=O)[C@@H]1CCCN1C(=O)[C@H](CCCN=C(N)N)NC(=O)[C@@H]1CNC(=O)C[C@H](NC(=O)[C@H](Cc2ccccc2)NC(=O)CNC(=O)CNC(=O)[C@H](Cc2ccc(O)cc2)NCc2ccccc2)C(=O)N[C@H](CCCN=C(N)N)C(=O)N[C@@H](CCCN=C(N)N)C(=O)N1)C(N)=O`, the figures for the Ratio in assay [1] and in assay [4] were 0.005 and 0.003, respectively. The Ki – broadly, the dissociation constant of the complex between target and ligand, obtained from inhibition or displacement – in assay [2] was > 10000 nM; in assay [3], 5880 nM; in assay [5], 30.3 nM.

On to `CC[C@H](C)[C@H](NC(=O)[C@H](CCCN=C(N)N)NC(=O)[C@H](CCCN=C(N)N)NC(=O)[C@H](CC(C)C)NC(=O)[C@H](Cc1ccccc1)NC(=O)CNC(=O)CNC(=O)[C@@H](N)Cc1ccc(O)cc1)C(=O)N[C@@H](CCCN=C(N)N)C(=O)N1CCC[C@H]1C(=O)N[C@@H](CCCCN)C(N)=O`, for which the Ratio worked out at 0.33 in assay [1] and 0.09 in assay [4]. Besides, the inhibition constant Ki in assay [2] worked out at 6.18 nM; in assay [5], 0.57 nM.

These data come from ChEMBL document CHEMBL1140310, “[Nalpha-benzylTyr1,cyclo(D-Asp5,Dap8)]- dynorphin A-(1-11)NH2 cyclized in the "address" domain is a novel kappa-opioid receptor antagonist” (J Med Chem, 2005).
